Where a SMILES comes first, the peptide text is derived from it. Bridges are numbered along the chain shown (N, C = ends).
Columns and labels:
Assay type in all cases: in vivo, human
healthy men [1] = experiment: Plasma acyl ghrelin during LEAP2 infusion, crossover study; settings: mean ± SEM
Source text: (§1) The infusion was terminated when participants had finished eating.
(§2) For analysis of plasma glucose, blood was distributed in fluoride heparin-coated tubes, centrifuged immediately for 30 s (12,100 g, room temperature) and measured bedside by the glucose oxidase method (YSI 2900 Biochemistry Analyzer; YSI Incorporated, Yellow Springs, Ohio, USA). For analysis of LEAP2, blood was collected in chilled K3EDTA tubes each containing 250 KIU of aprotinin. For analysis of acyl ghrelin, blood was collected in chilled K2EDTA tubes added 20 μL pefabloc (100 mg/mL; Merck Millipore, Burlington, Massachusetts, USA). Subsequently, pefabloc-treated plasma was acidified with HCl (12.5 μL 2M HCl per 500 μL plasma; Merck Millipore, Burlington, Massachusetts, USA). For analysis of glucagon, blood was collected in K2EDTA tubes. For analysis of GH, insulin, C-peptide, free fatty acids, glycerol, triglycerides and acetaminophen (paracetamol), blood was collected in tubes with lithium and heparin. All tubes were immediately cooled on ice, centrifuged for 15 min (2,000 g, 4°C) and stored at −80°C until analysis. LEAP2 concentrations were determined by an in-house radioimmunoassay directed against the N-terminal part of LEAP2. LEAP-2 was used for standards, and the tracer was a peptide composed of the 12 N-terminal amino acids of LEAP2, with a ^125I-labelled tyrosine added to the C-terminal end. The precision and accuracy of the assay were evaluated based on European Medicines Agency's guidelines for bioanalytical assay validation. […] Due to supply chain disruptions from the COVID-19 pandemic, acyl ghrelin was only measured in plasma samples at timepoints 0, 60, 105, 165 and 255 min. […] Plasma GH was measured by Immunodiagnostic system-iSYS assay (IS-3700; IDS Limited, Boldon, UK). The assay is based on chemiluminesence technology and was performed according to the manufacturer’|'s instructions. […] For analysis of glucagon, plasma was extracted in a final concentration of 70% ethanol. Glucagon was measured using a C-terminal directed antiserum (code number 4305) measuring glucagon of pancreatic origin as previously described.[40] […] Plasma insulin and C-peptide were measured using a two-sided electrochemiluminescence immunoassay (Atellica IM Analyzer; Siemens Healthcare, Ballerup, Denmark). Plasma triglycerides and acetaminophen were analyzed by spectrophotometric methods following enzymatic hydrolysis and oxidation (Siemens Atellica CH 930; Siemens Healthcare, Ballerup, Denmark). Plasma concentrations of free fatty acids and glycerol were determined by enzymatic methods modified to run on a COBAS 6000 automatic analyzer (Roche, Rødovre, Denmark) using a NEFA-HR assay (Wako Chemicals, Neuss, Germany) and glycerol assay (Randox Laboratories, Crumlin, UK), respectively.
(§3) Unless otherwise stated, results are presented as mean ± SEM. Baseline values were calculated as a mean of timepoints −35, −10 and 0 min or, when only available −10 and 0 min. Baseline values for the postprandial period were calculated as a mean of timepoint 60 min. Calculations of AUC were based on the trapezoidal rule. AUC values are reported for the period 0 to 255 min. To assess the fasting and postprandial periods separately, AUC values are reported for the periods 0 to 60 min and 60 to 255 min, respectively. Student’s paired t test was used to test for differences in baseline, peak, time to peak, AUC and mean values and ad libitum food intake in men.

healthy men [2] = experiment: Plasma insulin, C-peptide and C-peptide/glucose ratio during LEAP2 infusion, crossover study; settings: mean ± SEM
Source text: as §1, §2, §3

healthy men [3] = experiment: Plasma acetaminophen as indirect marker of gastric emptying, crossover study; settings: healthy men n = 20, iv LEAP2 ~25 pmol/kg/min
Source text: as §1
For analysis of plasma glucose, blood was distributed in fluoride heparin-coated tubes, centrifuged immediately for 30 s (12,100 g, room temperature) and measured bedside by the glucose oxidase method (YSI 2900 Biochemistry Analyzer; YSI Incorporated, Yellow Springs, Ohio, USA). For analysis of LEAP2, blood was collected in chilled K3EDTA tubes each containing 250 KIU of aprotinin. For analysis of acyl ghrelin, blood was collected in chilled K2EDTA tubes added 20 μL pefabloc (100 mg/mL; Merck Millipore, Burlington, Massachusetts, USA). Subsequently, pefabloc-treated plasma was acidified with HCl (12.5 μL 2M HCl per 500 μL plasma; Merck Millipore, Burlington, Massachusetts, USA). For analysis of glucagon, blood was collected in K2EDTA tubes. For analysis of GH, insulin, C-peptide, free fatty acids, glycerol, triglycerides and acetaminophen (paracetamol), blood was collected in tubes with lithium and heparin. All tubes were immediately cooled on ice, centrifuged for 15 min (2,000 g, 4°C) and stored at −80°C until analysis. LEAP2 concentrations were determined by an in-house radioimmunoassay directed against the N-terminal part of LEAP2. […] The precision and accuracy of the assay were evaluated based on European Medicines Agency's guidelines for bioanalytical assay validation. […] Due to supply chain disruptions from the COVID-19 pandemic, acyl ghrelin was only measured in plasma samples at timepoints 0, 60, 105, 165 and 255 min. […] Plasma GH was measured by Immunodiagnostic system-iSYS assay (IS-3700; IDS Limited, Boldon, UK). […] Glucagon was measured using a C-terminal directed antiserum (code number 4305) measuring glucagon of pancreatic origin as previously described.[40] […] Plasma insulin and C-peptide were measured using a two-sided electrochemiluminescence immunoassay (Atellica IM Analyzer; Siemens Healthcare, Ballerup, Denmark). Plasma triglycerides and acetaminophen were analyzed by spectrophotometric methods following enzymatic hydrolysis and oxidation (Siemens Atellica CH 930; Siemens Healthcare, Ballerup, Denmark). […]

healthy men [4] = experiment: Plasma glucagon during LEAP2 infusion, crossover study; settings: mean ± SEM
Source text: as §1, §2, §3

healthy men [5] = experiment: Brown adipose tissue thermogenesis by thermal imaging; settings: iv LEAP2 ~25 pmol/kg/min, thermal imaging camera
Description: To assess BAT thermogenesis, temperature of the upper chest was measured from −10 to 0 min, 0 to 15 min, 90 to 105 min and 180 to 195 min using a thermal imaging camera (FLIR A655sc; FLIR Systems, Wilsonville, Oregon, USA). Participants were positioned approximately one meter from the camera in a hospital bed with slight elevation of the head and wearing long-sleeved shirts that exposed the upper chest. The emissivity for measurement of human skin temperatures was set to 0.98 as detailed by the manufacturer. Thermal images were collected at 30-s intervals and analyzed using the FLIR tools program (FLIR Systems, Wilsonville, Oregon, USA). Post hoc, the two supraclavicular regions and a region corresponding to the manubrium of the sternum were marked as regions of interest and the maximum temperature per image was recorded. An average of records from the two supraclavicular regions was used. The manubrium region was used as a negative control reflecting the overall cutaneous heat production.[37], [38], [39] For analysis of BAT thermogenesis, manubrium-corrected temperature was calculated as the average of the supraclavicular skin temperatures minus the manubrium skin temperature. […] Average room temperature was 22.5 ± 0.06 °C adjusted by two air conditioners (Electrolux EXP35U538CW; AB Electrolux, Stockholm, Sweden) and recorded four times during each experimental day. […]

healthy men [6] = experiment: Plasma free fatty acids, glycerol and triglycerides during LEAP2 infusion, crossover study; settings: mean ± SEM
Source text: as §1, §2, §3

[7] = healthy men n = 20, LEAP2 day, before infusion
[8] = healthy men n = 20, iv LEAP2 ~25 pmol/kg/min, 0 to 255 min
[9] = healthy men n = 20, iv LEAP2 ~25 pmol/kg/min, fasting period
[10] = healthy men n = 20, iv LEAP2 ~25 pmol/kg/min, liquid mixed meal at 65 min
[11] = healthy men n = 20, iv LEAP2 ~25 pmol/kg/min, postprandial period
[12] = healthy men n = 20, iv LEAP2 ~25 pmol/kg/min, time = 60 min
[13] = 1.5 g acetaminophen in liquid mixed meal at 65 min, marker of gastric emptying, mean ± SEM

CC[C@H](C)[C@@H]1NC(=O)[C@@H]2CSSC[C@@H](C(=O)N[C@@H](CO)C(=O)N[C@@H](CC(C)C)C(=O)N[C@@H](CO)C(=O)N[C@H](C(=O)N[C@@H](C)C(=O)N[C@@H](CCC(N)=O)C(=O)N[C@@H](CCC(=O)O)C(=O)O)C(C)C)NC(=O)[C@H](CCCNC(=N)N)NC(=O)[C@H](CCCNC(=N)N)NC(=O)[C@H](CCCCN)NC(=O)[C@H](CCCNC(=N)N)NC(=O)[C@H](CSSC[C@H](NC(=O)[C@H](CO)NC(=O)[C@H](C)NC(=O)CNC(=O)[C@@H](NC(=O)[C@@H]3CCCN3C(=O)[C@H](CCCNC(=N)N)NC(=O)[C@H](CC(C)C)NC(=O)[C@H](CO)NC(=O)[C@@H](NC(=O)CNC(=O)[C@H](CCCNC(=N)N)NC(=O)[C@H](Cc3c[nH]c4ccccc34)NC(=O)[C@H](Cc3ccccc3)NC(=O)[C@@H]3CCCN3C(=O)[C@@H](NC(=O)[C@@H](N)CCSC)[C@@H](C)O)C(C)C)[C@@H](C)CC)C(=O)N[C@@H](CCCNC(=N)N)C(=O)N[C@@H](CC(=O)O)C(=O)N[C@@H](CC(=O)O)C(=O)N[C@@H](CO)C(=O)N[C@@H](CCC(=O)O)C(=O)N2)NC(=O)[C@H](CC(C)C)NC(=O)[C@H](CCCNC(=N)N)NC(=O)[C@H]([C@@H](C)O)NC1=O [LEAP2, liver-expressed antimicrobial peptide 2] (H-MTPFWRGVSLRPIGASCRDDSECITRLCRKRRCSLSVAQE-OH; disulfide 17-28, 23-33 (inferred); N-terminus and C-terminus assumed)
Acyl ghrelin Baseline (healthy men [1]; [7]): 0.155 ± 0.011 ng/mL | Acyl ghrelin AUC (healthy men [1]; [8]): 31.2 ± 1.94 ng·min/mL | Acyl ghrelin AUC0–60 min (healthy men [1]; [9]): 9.50 ± 0.67 ng·min/mL | Acyl ghrelin Nadir (healthy men [1]; [10]): 0.088 ± 0.006 ng/mL | Acyl ghrelin AUC60–255 min (healthy men [1]; [11]): 21.7 ± 1.33 ng·min/mL | Acyl ghrelin Postprandial baseline (healthy men [1]; [12]): 0.161 ± 0.012 ng/mL | C-peptide Baseline (healthy men [2]; [7]): 360 ± 21.4 pmol/L | Insulin Baseline (healthy men [2]; [7]): 36.4 ± 1.70 pmol/L | C-peptide AUC (healthy men [2]; [8]): 218 ± 11.7 nmol·min/L | Insulin AUC (healthy men [2]; [8]): 33.8 ± 2.63 nmol·min/L | C-peptide AUC0–60 min (healthy men [2]; [9]): 22.5 ± 1.18 nmol·min/L | Insulin AUC0–60 min (healthy men [2]; [9]): 2.39 ± 0.09 nmol·min/L | C-peptide Peak (healthy men [2]; [10]): 1,524 ± 106 pmol/L | C-peptide Time to peak (healthy men [2]; [10]): 136 ± 9.01 min | Insulin Peak (healthy men [2]; [10]): 347 ± 38.6 pmol/L | Insulin Time to peak (healthy men [2]; [10]): 110 ± 6.28 min | C-peptide AUC60–255 min (healthy men [2]; [11]): 196 ± 11.2 nmol·min/L | Insulin AUC60–255 min (healthy men [2]; [11]): 31.5 ± 2.60 nmol·min/L | C-peptide Postprandial baseline (healthy men [2]; [12]): 365 ± 20.2 pmol/L | Insulin Postprandial baseline (healthy men [2]; [12]): 38.6 ± 2.09 pmol/L | Acetaminophen Peak (healthy men [3]; [13]): 65.1 ± 2.52 µmol/L | Acetaminophen Time to peak (healthy men [3]; [13]): 209 ± 6.34 min | gastric emptying rate of a liquid mixed meal (healthy men [3]; by plasma acetaminophen, vs placebo): does not alter gastric emptying rate | Glucagon Baseline (healthy men [4]; [7]): 6.57 ± 0.76 pmol/L | Glucagon AUC (healthy men [4]; [8]): 2.26 ± 0.20 nmol·min/L | Glucagon AUC0–60 min (healthy men [4]; [9]): 0.446 ± 0.044 nmol·min/L | Glucagon Peak (healthy men [4]; [10]): 13.0 ± 0.94 pmol/L | Glucagon Time to peak (healthy men [4]; [10]): 116 ± 12.5 min | Glucagon AUC60–255 min (healthy men [4]; [11]): 1.82 ± 0.17 nmol·min/L | Glucagon Postprandial baseline (healthy men [4]; [12]): 7.35 ± 0.82 pmol/L | BAT thermogenesis (manubrium-corrected supraclavicular skin temperature), LEAP2 vs placebo (healthy men [5]): no differences | Free fatty acids Baseline (healthy men [6]; [7]): 339 ± 18.4 µmol/L | Glycerol Baseline (healthy men [6]; [7]): 26.6 ± 2.45 µmol/L | Triglycerides Baseline (healthy men [6]; [7]): 920 ± 62.2 µmol/L | Free fatty acids AUC (healthy men [6]; [8]): 43.2 ± 2.49 mmol·min/L | Glycerol AUC (healthy men [6]; [8]): 4.87 ± 0.57 mmol·min/L | Triglycerides AUC (healthy men [6]; [8]): 263 ± 16.7 mmol·min/L | Free fatty acids AUC0–60 min (healthy men [6]; [9]): 18.9 ± 1.18 mmol·min/L | Glycerol AUC0–60 min (healthy men [6]; [9]): 1.65 ± 0.15 mmol·min/L | Triglycerides AUC0–60 min (healthy men [6]; [9]): 53.5 ± 3.14 mmol·min/L | Free fatty acids Nadir (healthy men [6]; [10]): 58.4 ± 3.94 µmol/L | Free fatty acids Time to nadir (healthy men [6]; [10]): 155 ± 7.63 min | Glycerol Nadir (healthy men [6]; [10]): 11.7 ± 2.12 µmol/L | Glycerol Time to nadir (healthy men [6]; [10]): 144 ± 10.2 min | Triglycerides Peak (healthy men [6]; [10]): 1,275 ± 84.8 μmol/L | Triglycerides Time to peak (healthy men [6]; [10]): 195 ± 5.33 min | Free fatty acids AUC60–255 min (healthy men [6]; [11]): 24.4 ± 1.51 mmol·min/L | Glycerol AUC60–255 min (healthy men [6]; [11]): 3.22 ± 0.44 mmol·min/L | Triglycerides AUC60–255 min (healthy men [6]; [11]): 210 ± 13.8 mmol·min/L | Free fatty acids Postprandial baseline (healthy men [6]; [12]): 272 ± 16.4 µmol/L | Glycerol Postprandial baseline (healthy men [6]; [12]): 22.9 ± 2.12 µmol/L | Triglycerides Postprandial baseline (healthy men [6]; [12]): 847 ± 48.3 µmol/L
